Test results as given in patent US20240240078A1, “NUCLEIC ACID FUNCTIONALIZED METAL NANOPROBE AND PREPARATION METHOD THEREFOR” (SOUTHEAST UNIVERSITY, priority 2021, published 2024).

How the values were obtained:
[1] = tested on: Escherichia coli; assay: Germicidal effect after 808 nm laser irradiation, culture on solid medium and counting; assay type: cell-based
Procedure: (§1) A preparation method for a nucleic acid functionalized metal nanoprobe includes: • (1) deoxyribonucleic acid (DNA) molecules are fully mixed with a diluted nucleic acid intercalator SYBR Green I (2.5×), and a mixture is placed at a room temperature to react in dark for 30 min. • (2) a reaction product of step (1) is fully mixed with 100 μmol/L chloroauric acid solution to obtain a mixed solution A. • (3) the mixed solution A and Escherichia coli are continuously co-incubated in a constant-temperature shaking table for 1 h-12 h to obtain a mixed solution B. A normal control group (a chloroauric acid solution having the same concentration as the experimental group is merely added) and a blank group (an Escherichia coli suspension without any treatment) are set. After incubation, a small amount of the above mixed solution are dripped into the slide glass, and mounting is performed with a cover glass. • (4) A slide glass is placed under a laser confocal fluorescence microscope to be activated. Further, the above mixture is irradiated with 808 nm laser for 5-10 min, is cultured on a solid medium, and counted.

[2] = tested on: Escherichia coli; assay: Fluorescence imaging of co-incubated bacteria under laser confocal fluorescence microscope; assay type: cell-based
Procedure: as §1

SMILES: [Au+3].[Cl-].[Cl-].[Cl-].[Cl-].[H+] [chloroauric acid]
- germicidal (antibacterial) effect ([1]; 808 nm laser 5-10 min, cultured on solid medium and counted, metal cation 100 μmol/L): most of Escherichia coli is killed
- sterilization effect with increase of concentration ([1]; method of Example 1, 0-300 μmol/L (FIG. 3)): gradually enhanced
- fluorescence / signal intensity ([2]; co-incubated with Escherichia coli 1 h-12 h, metal cation 100 μmol/L): weak fluorescence
- concentration at which signal intensity reaches maximum / does not increase any more ([2]; method of Example 1, 0, 10, 50, 100, 200, 300 μmol/L tested (FIG. 2)): 100 µmol/L
- signal intensity with increase of concentration ([2]; method of Example 1, 0-300 μmol/L (FIG. 2)): enhanced
